According to patent EP4385326A1, “BIOPESTICIDE COMPOSITION AND METHOD FOR CONTROLLING AND TREATING BROAD SPECTRUM OF PESTS AND DISEASES IN PLANTS” (Kimitec Biogorup, priority 2022, dated 2024):
Marks after values point to notes of the source that are not given here.

What was measured:
[1] = system: Tetranychus urticae; assay: Contact mortality (Leaf Disc Method); type: in vivo; conditions: Table 5, application dose 3 cc/l (0.3%), Abbott's corrected
[2] = system: Myzus persicae; assay: Contact mortality (Leaf Disc Method); type: in vivo; conditions: Table 4, application dose 3 cc/l (0.3%), Abbott's corrected
[3] = system: Bemisia tabaci; assay: Contact mortality (Leaf Disc Method); type: in vivo; conditions: Table 4, application dose 3 cc/l (0.3%), Abbott's corrected
[4] = system: Tuta absoluta; assay: Contact mortality (Leaf Disc Method); conditions: Table 3; application dose 3 cc/l (0.3%); Abbott's corrected; 24 h
[5] = system: Frankliniella occidentalis; assay: Contact mortality (Leaf Disc Method); type: in vivo; conditions: Table 4, application dose 3 cc/l (0.3%), Abbott's corrected
[6] = system: Spodoptera littoralis; assay: Contact mortality (Leaf Disc Method); conditions: Table 3; application dose 3 cc/l (0.3%); Abbott's corrected; 24 h
Protocol: Which is compared to individual solvent, using different solvents in order to extract active principles from vegetable matrix in the step b) claimed process and a third option that is evaporated the resulting solvent in the extraction process. Vegetable matrix is Carum carvi seed. Three kinds of treatments previously mentioned are: • Treatment A: Individual solvent • Treatment B: Plant extract without solvent. The solvent was removed by vacuum concentration and the composition was prepared using the crude extract in an aqueous solution in 2% Tween^Tm24. • Treatment C: Plant extract with different solvents.
The biopesticidal activity of the different treatments is tested in vitro against two lepidopteran pests: polyphagous Spodoptera littoralis and olyphagous Tuta absoluta. Aside from benzyl alcohol, solvents frequently used to formulate chemical products such as ethanol, isopropanol and water are used in the treatments. Table 3. In vitro trials against chewing lepidopteran pests
The objective of this bioassay is to evaluate the effect of test items on the mortality of adult insects and mites in a short/medium-term (0-24 hours) by topical application. Tests were conducted in plastic net bottles. A total of 10 replicates for each treatment (tests items and negative control) were used in each experiment and temporarily replicated 3 times along the week. (Figure 4)
Numbers of live and dead adult insects and mites were counted at 24 h post-treatment. Adult insects and mites were considered dead if no movement was apparent after probing with the tip of a fine brush under stereoscopic magnifying glass. Mortality percentage was calculated in treatment and control groups. If the mortality in negative control is above 20% the test was discarded.
Means of %M were compared using a one-way analysis of variance (ANOVA, p<0.05) and LSD-test as a post hoc test to verify significant differences between single treatments using Statgraphics Centurion XVII software. When nonnormality in the data was detected, an additional Kruskal-Wallis test was conducted, and Box-and-Whisker Plot (Median Notch) was presented. • Antifeedant effects

[7] = general property stated in the summary; cited from earlier work

O [Water]
Contact mortality (%M) Tetranychus urticae (adults) ([1]; 1440 min): 0.0 ± 0.0 ^e % | Contact mortality (%M) Myzus persicae (adults) ([2]; 1440 min): 0.0 ± 0.0 ^e % | Contact mortality (%M) Bemisia tabaci (adults) ([3]; 1440 min): 0.0 ± 0.0 ^e % | Contact mortality (%M) Tuta absoluta [4]: 0.0 ± 0.0 ^e % | Contact mortality (%M) Frankliniella occidentalis (immature) ([5]; 1440 min): 0.0 ± 0.0 ^e % | Contact mortality (%M) Spodoptera littoralis [6]: 0.0 ± 0.0 ^f %

OCc1ccccc1 [Benzyl alcohol (BnOH), Benzyl alcohol]
Contact mortality (%M) Tetranychus urticae (adults) [1]: 33.4 ± 4.1 ^d % | solubility in water [7]: 4 g/100 mL | Contact mortality (%M) Myzus persicae (adults) [2]: 19.8 ± 6.2 ^d % | Contact mortality (%M) Bemisia tabaci (adults) [3]: 49.8 ± 6.2 ^cd % | Contact mortality (%M) Tuta absoluta [4]: 29.6 ± 5.7 ^d % | Contact mortality (%M) Frankliniella occidentalis (immature) [5]: 12.5 ± 7.8 ^d % | Contact mortality (%M) Spodoptera littoralis [6]: 17.4 ± 6.2 ^de %

CCO [Ethanol (EtOH), Ethanol]
Contact mortality (%M) Tetranychus urticae (adults) [1]: 0.0 ± 0.0 ^e % | Contact mortality (%M) Myzus persicae (adults) [2]: 16.7 ± 9.1 ^d % | Contact mortality (%M) Bemisia tabaci (adults) [3]: 23.5 ± 8.4 ^d % | Contact mortality (%M) Tuta absoluta [4]: 0.0 ± 0.0 ^e % | Contact mortality (%M) Frankliniella occidentalis (immature) [5]: 0.0 ± 0.0 ^e % | Contact mortality (%M) Spodoptera littoralis [6]: 0.0 ± 0.0 ^f %

CC(C)O [Isopropanol (IPN), Isopropanol]
Contact mortality (%M) Tetranychus urticae (adults) [1]: 0.0 ± 0.0 ^e % | Contact mortality (%M) Myzus persicae (adults) [2]: 0.0 ± 0.0 ^e % | Contact mortality (%M) Bemisia tabaci (adults) [3]: 0.0 ± 0.0 ^e % | Contact mortality (%M) Tuta absoluta [4]: 11.4 ± 7.2 ^e % | Contact mortality (%M) Frankliniella occidentalis (immature) [5]: 0.0 ± 0.0 ^e % | Contact mortality (%M) Spodoptera littoralis [6]: 4.2 ± 6.1 ^f %
